Experimental data: ChEMBL document CHEMBL1201862, “PubChem BioAssay data set” (2004)
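Compound exposure: 48 hours, 5 concentrations, 96-well plates. GI50 marks 50% less growth.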 Calls of active or inactive are those of the source. Cut-off read from the data, not from the text of the source: active = GI50 up to about 1.1 µM and inactive = higher.

Key:
Experiment in all cases: NCI anticancer screen, dose series, 48 h
OVCAR-8 = system: OVCAR-8
HCT-116 = system: HCT-116
LOX IMVI = system: LOX IMVI
MOLT-4 = system: MOLT-4
DU-145 = system: DU-145
SF-295 = system: SF-295
MDA-MB-435 = system: MDA-MB-435
OVCAR-4 = system: OVCAR-4
NCI-H522 = system: NCI-H522
SF-539 = system: SF-539
A549 = system: A549
786-0 = system: 786-0
HOP-92 = system: HOP-92
CCRF-CEM = system: CCRF-CEM
MCF7 = system: MCF7
A498 = system: A498
HCT-15 = system: HCT-15
OVCAR-5 = system: OVCAR-5
SK-MEL-5 = system: SK-MEL-5
HCC 2998 = system: HCC 2998

Measured: GI50

CC(C)C1N(C)c2ccc(Cl)cc2[C@H]2c3ccccc3CCN12 (stereo partly specified)
inactive: OVCAR-8 > 100 µM | HCT-116 40.2 µM | LOX IMVI 31.6 µM | MOLT-4 37.8 µM | DU-145 53.5 µM | SF-295 18.2 µM | MDA-MB-435 23 µM | OVCAR-4 69.2 µM | NCI-H522 21.9 µM | SF-539 > 100 µM | A549 39 µM | 786-0 > 100 µM | HOP-92 24.9 µM | CCRF-CEM 97.9 µM | MCF7 30.7 µM | A498 78 µM | OVCAR-5 38.3 µM
37.1 µM: HCT-15

CCOC(=O)c1cc2c3c(cc(OC)c2[nH]1)N(C(=O)OCC)CC3
> 100 µM: HCT-15
inactive: OVCAR-8 > 100 µM | HCT-116 > 100 µM | LOX IMVI > 100 µM | MOLT-4 > 100 µM | DU-145 > 100 µM | SF-295 > 100 µM | SK-MEL-5 > 100 µM | MDA-MB-435 > 100 µM | OVCAR-4 > 100 µM | HCC 2998 > 100 µM | SF-539 > 100 µM | A549 > 100 µM | 786-0 > 100 µM | HOP-92 > 100 µM | CCRF-CEM > 100 µM | MCF7 > 100 µM | A498 > 100 µM | OVCAR-5 > 100 µM

O=C1C(=c2cc3c(c4ccccc24)=NC24CCCCC2C(c2ccccc2)C=C(c2ccccc2)N34)C(=O)c2ccccc21 (stereo unspecified)
inactive: OVCAR-8 50.4 µM | HCT-116 36.2 µM | LOX IMVI 34.2 µM | MOLT-4 16.6 µM | DU-145 57.3 µM | SF-295 > 100 µM | SK-MEL-5 26.4 µM | MDA-MB-435 22 µM | OVCAR-4 15.5 µM | NCI-H522 16.7 µM | SF-539 41.1 µM | A549 41 µM | 786-0 48.6 µM | HOP-92 27.9 µM | CCRF-CEM 15.6 µM | MCF7 14.4 µM | A498 > 100 µM | OVCAR-5 > 100 µM

O=C1/C(=C\c2ccc(Cl)cc2)N=C(c2ccccc2)N1n1c(=O)cn[nH]c1=S
inactive: OVCAR-8 21.8 µM | HCT-116 68.2 µM | LOX IMVI 27.8 µM | MOLT-4 18.7 µM | DU-145 19.8 µM | SF-295 > 100 µM | SK-MEL-5 21.7 µM | MDA-MB-435 30.5 µM | OVCAR-4 23.6 µM | HCC 2998 84.3 µM | NCI-H522 15.8 µM | SF-539 > 100 µM | A549 > 100 µM | 786-0 18.4 µM | CCRF-CEM 2.56 µM | MCF7 18.4 µM | A498 > 100 µM | OVCAR-5 > 100 µM
21.5 µM: HCT-15

CC1(C)C(CCO)CC1n1ccc(=O)[nH]c1=O (stereo unspecified)
> 100 µM: HCT-15
inactive: HCT-116 > 100 µM | LOX IMVI > 100 µM | DU-145 > 100 µM | SF-295 > 100 µM | SK-MEL-5 > 100 µM | MDA-MB-435 > 100 µM | OVCAR-4 > 100 µM | HCC 2998 > 100 µM | SF-539 > 100 µM | A549 > 100 µM | 786-0 > 100 µM | HOP-92 > 100 µM | CCRF-CEM > 100 µM | MCF7 > 100 µM | A498 > 100 µM | OVCAR-5 > 100 µM

C[C@H](c1ccccc1)N1C(=O)[C@@H](O)[C@H]1[C@H](CO)OCc1ccccc1
inactive: OVCAR-8 > 100 µM | HCT-116 > 100 µM | LOX IMVI > 100 µM | MOLT-4 > 100 µM | DU-145 > 100 µM | SF-295 95.3 µM | SK-MEL-5 > 100 µM | MDA-MB-435 > 100 µM | OVCAR-4 > 100 µM | A549 > 100 µM | 786-0 > 100 µM | HOP-92 96.4 µM | CCRF-CEM > 100 µM | MCF7 > 100 µM | A498 20 µM | OVCAR-5 > 100 µM
> 100 µM: HCT-15

COc1ccc2c(c1)CCC/C2=N\NS(=O)(=O)c1c(C)cc(C)cc1C
30.3 µM: HCT-15
inactive: OVCAR-8 30.9 µM | HCT-116 18.3 µM | LOX IMVI 19.4 µM | MOLT-4 25.5 µM | DU-145 25.6 µM | SF-295 34.4 µM | SK-MEL-5 17.3 µM | MDA-MB-435 27.7 µM | OVCAR-4 29.9 µM | HCC 2998 41.5 µM | SF-539 19.2 µM | A549 34.9 µM | 786-0 19.1 µM | HOP-92 20.3 µM | CCRF-CEM 27.1 µM | MCF7 37.8 µM | A498 31.8 µM | OVCAR-5 39.6 µM

COC(=O)c1cc(NC(=O)c2cc(NC(=O)Cc3c[nH]c4ccccc34)cn2C)cn1C
42.8 µM: HCT-15
inactive: OVCAR-8 39.4 µM | HCT-116 27.2 µM | LOX IMVI 32 µM | MOLT-4 30.7 µM | DU-145 > 100 µM | SF-295 36.3 µM | SK-MEL-5 16 µM | MDA-MB-435 30.3 µM | OVCAR-4 43.1 µM | SF-539 56.4 µM | A549 29.4 µM | 786-0 56.9 µM | CCRF-CEM 32.7 µM | MCF7 36.5 µM | A498 24 µM | OVCAR-5 39.3 µM

Cc1cn([C@H]2CN(O)C[C@@H](CO)O2)c(=O)[nH]c1=O
inactive: OVCAR-8 > 100 µM | HCT-116 > 100 µM | MOLT-4 > 100 µM | DU-145 > 100 µM | SF-295 > 100 µM | SK-MEL-5 > 100 µM | MDA-MB-435 > 100 µM | OVCAR-4 > 100 µM | HCC 2998 > 100 µM | SF-539 > 100 µM | A549 > 100 µM | 786-0 > 100 µM | MCF7 > 100 µM | A498 > 100 µM | OVCAR-5 > 100 µM
> 100 µM: HCT-15

CN(C)/C=N/c1ccc2nonc2c1
inactive: OVCAR-8 > 100 µM | HCT-116 > 100 µM | MOLT-4 > 100 µM | DU-145 > 100 µM | SF-295 > 100 µM | SK-MEL-5 > 100 µM | MDA-MB-435 > 100 µM | OVCAR-4 > 100 µM | HCC 2998 > 100 µM | NCI-H522 > 100 µM | SF-539 > 100 µM | A549 > 100 µM | 786-0 > 100 µM | CCRF-CEM > 100 µM | MCF7 > 100 µM | A498 > 100 µM | OVCAR-5 > 100 µM
> 100 µM: HCT-15

Cc1ccc(/N=C2\OP(=O)(Nc3ccc(C)cc3)Oc3ccccc32)cc1 (stereo unspecified)
inactive: OVCAR-8 > 100 µM | HCT-116 87.9 µM | LOX IMVI > 100 µM | MOLT-4 > 100 µM | DU-145 > 100 µM | SF-295 > 100 µM | SK-MEL-5 73.1 µM | MDA-MB-435 > 100 µM | OVCAR-4 > 100 µM | HCC 2998 > 100 µM | SF-539 > 100 µM | A549 > 100 µM | 786-0 > 100 µM | HOP-92 30 µM | CCRF-CEM > 100 µM | MCF7 90.6 µM | A498 > 100 µM | OVCAR-5 > 100 µM
> 100 µM: HCT-15

O=c1c2c(nc3[nH]ccn13)CCC2
inactive: OVCAR-8 > 10 µM | HCT-116 > 10 µM | LOX IMVI > 10 µM | MOLT-4 > 10 µM | DU-145 > 10 µM | SF-295 > 10 µM | SK-MEL-5 > 10 µM | MDA-MB-435 > 10 µM | OVCAR-4 > 10 µM | SF-539 > 10 µM | A549 > 10 µM | 786-0 > 10 µM | HOP-92 > 10 µM | CCRF-CEM > 10 µM | MCF7 > 10 µM | A498 2.13 µM | OVCAR-5 > 10 µM
> 10 µM: HCT-15

CCOC(=O)c1nc2cc(C(F)(F)F)ccc2nc1Oc1ccc(OC)cc1
inactive: OVCAR-8 > 100 µM | HCT-116 > 100 µM | LOX IMVI > 100 µM | MOLT-4 45.5 µM | DU-145 > 100 µM | SF-295 > 100 µM | SK-MEL-5 > 100 µM | MDA-MB-435 > 100 µM | OVCAR-4 > 100 µM | HCC 2998 > 100 µM | NCI-H522 72.4 µM | SF-539 > 100 µM | A549 > 100 µM | 786-0 > 100 µM | HOP-92 > 100 µM | CCRF-CEM 66.2 µM | MCF7 > 100 µM | OVCAR-5 > 100 µM
> 100 µM: HCT-15

N#C/N=C(/N)c1sc2nc3c(c(-c4ccc(Br)cc4)c2c1N)CCCC3
inactive: OVCAR-8 24.8 µM | HCT-116 9.02 µM | LOX IMVI 7.93 µM | MOLT-4 11.7 µM | DU-145 21 µM | SF-295 11.1 µM | SK-MEL-5 4.37 µM | MDA-MB-435 2.73 µM | OVCAR-4 3.21 µM | HCC 2998 22.1 µM | SF-539 22.1 µM | A549 25.4 µM | 786-0 15.7 µM | HOP-92 21 µM | CCRF-CEM 9.84 µM | MCF7 18.5 µM | A498 16.1 µM | OVCAR-5 34.3 µM
10.2 µM: HCT-15

C[C@H]1C[C@H](C)c2ccccc2N(C)/C1=N\c1ccccc1
inactive: OVCAR-8 43.2 µM | HCT-116 13.3 µM | LOX IMVI 13.7 µM | MOLT-4 22.5 µM | DU-145 92 µM | SF-295 26.4 µM | SK-MEL-5 16.7 µM | MDA-MB-435 20.4 µM | OVCAR-4 > 100 µM | HCC 2998 39.2 µM | SF-539 30.2 µM | A549 34.7 µM | 786-0 22.9 µM | HOP-92 8.51 µM | MCF7 25.1 µM | A498 25.2 µM | OVCAR-5 21.4 µM
37.2 µM: HCT-15
